In test [1] the target is T1, hAM2 receptor (CALCRL:RAMP3) (Homo sapiens, UniProt O60896+Q16602).
T1 construct: expressed in transfected cells; host or cells: GeneBLAzer CALCRL:RAMP3-CRE-bla Freestyle 293F
The test is described as follows: AM2 receptor antagonist activity measured by cAMP assay (HTRF). The note with it: for Emax: % MPE: percent of the maximal possible effect, read-out: hAM2-R Efficacy Antag (%) Ave; for Emax / IC50: agonist human adrenomedullin; for IC50: GeneBLAzer CALCRL:RAMP3-CRE-bla Freestyle 293F cells, read-out: hAM2-R IC50 Ave; for selectivity ratio CGRP/AM2: selectivity ratio for hCGRP over hAM2, calculated from the IC50 values. Type of test: cell-based.
Procedure: Antagonist activity for the adrenomedullin receptor AM2 was determined using the method described in Example 6 above, with the following modifications. Instead of GeneBLAzer® CALCRL:RAMP1-CRE-bla Freestyle™ 293F cells, GeneBLAzer® CALCRL:RAMP3-CRE-bla Freestyle™ 293F cells were used to test activity at hAM2 receptors. The agonist was human adrenomedullin, instead of α-CGRP.
In Table 5, the selectivity ratio for hCGRP over hAM2 is calculated as hCGRP-R IC50/hAM2-R IC50.

For test [2], the target named is T2, hCGRP receptor (CALCRL:RAMP1) (Homo sapiens, UniProt O60894+Q16602).
T2 construct: host or cells: GeneBLAzer CALCRL:RAMP1-CRE-bla Freestyle 293F
T2 sequence (Q16602 23-461): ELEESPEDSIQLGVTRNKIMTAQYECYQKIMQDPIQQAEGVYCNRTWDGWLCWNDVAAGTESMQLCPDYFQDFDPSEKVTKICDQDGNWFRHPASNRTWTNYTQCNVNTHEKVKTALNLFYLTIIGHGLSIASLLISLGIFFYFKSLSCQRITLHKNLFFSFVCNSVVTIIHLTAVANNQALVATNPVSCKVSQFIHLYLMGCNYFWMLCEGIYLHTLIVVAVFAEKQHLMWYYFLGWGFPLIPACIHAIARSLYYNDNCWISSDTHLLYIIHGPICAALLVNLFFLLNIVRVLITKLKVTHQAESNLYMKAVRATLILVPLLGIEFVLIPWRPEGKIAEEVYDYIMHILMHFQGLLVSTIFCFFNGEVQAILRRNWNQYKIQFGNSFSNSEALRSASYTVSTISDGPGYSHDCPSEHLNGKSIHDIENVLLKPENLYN
T2 sequence (O60894 27-148): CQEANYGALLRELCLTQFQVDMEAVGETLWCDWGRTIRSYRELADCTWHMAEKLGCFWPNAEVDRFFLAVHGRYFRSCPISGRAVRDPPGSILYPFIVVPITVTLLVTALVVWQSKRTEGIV
The test is described as follows: CGRP receptor antagonist activity measured by cAMP assay (HTRF). To be noted: agonist human α-CGRP; for Emax: % MPE: percent of the maximal possible effect, read-out: hCGRP-R Efficacy Antag (%) Ave; for IC50: GeneBLAzer CALCRL:RAMP1-CRE-bla Freestyle 293F cells, 30 minutes, read-out: hCGRP-R IC50 Ave. Format: cell-based.

SMILES strings stand for the structures. Numbered stars: 1 amine (or outer) side, 2 acyl side, 3 side chain; on linkers, the order of the positions; unused ones are H or OH. Bridge positions count the residues as written; N and C are the ends. Square brackets hold non-standard residues; d marks the D form. Peptide text beside a SMILES is read from it. * marks the point of attachment. Phe(3-CONH2) = NC(=O)c1cccc(C[C@H](N)C(=O)O)c1; Phe(2-CONH2) = NC(=O)c1ccccc1C[C@H](N)C(=O)O; X5 = O=C([C@H](Cc1ccc(CO)cc1)N[*:1])[*:2]; Picolinoyl(5-F) = O=C(c1ccc(F)cn1)*; Orn(iPr) = CC(C)NCCC[C@H](N)C(=O)O; Oxazole2carbonyl = O=C(c1ncco1)*; 3Pal = N[C@@H](Cc1cccnc1)C(=O)O; Picolinoyl = O=C(c1ccccn1)*; ΔPro = O=C(O)[C@@H]1C=CCN1

T1 sequence (Q16602 23-461): as the sequence (Q16602 23-461) above
T1 sequence (O60896 24-148): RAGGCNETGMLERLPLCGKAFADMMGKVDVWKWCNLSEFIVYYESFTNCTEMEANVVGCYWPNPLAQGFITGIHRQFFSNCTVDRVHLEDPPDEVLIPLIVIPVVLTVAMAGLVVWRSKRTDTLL

Regarding `CC(C)NCCC[C@@H]1NC(=O)[C@@H](NC(=O)[C@H](Cc2ccccc2C(N)=O)NC(=O)[C@H](NC(=O)c2ccc(F)cn2)C(C)C)CSSC[C@@H](C(=O)N[C@@H](Cc2cccnc2)C(N)=O)NC(=O)[C@H](Cc2ccccc2C(N)=O)NC(=O)[C@@H]2C=CCN2C(=O)CNC(=O)[C@H](C(C)C)NC(=O)[C@H](CC(=O)O)NC1=O` [Compound 66, Picolinoyl(5-F)-D-Val-Phe(2-Cbm)-c(Cys-Orn(iPr)-Asp-Val-Gly-Dhp-Phe(2-Cbm)-Cys)-3Pal-NH2] ({Picolinoyl(5-F)}-[dV][Phe(2-CONH2)]C[Orn(iPr)]DVG[ΔPro][Phe(2-CONH2)]C[3Pal]-NH2; disulfide 3-10), in test [1], the Emax was 100%, the IC50 is 84 nM and the “selectivity ratio CGRP/AM2” value is listed as 1027. Also, in test [2], the Emax is 101% and the IC50 is 0.08 nM.
On the same counts, the results for `CC(C)NCCC[C@@H]1NC(=O)[C@@H](NC(=O)[C@H](Cc2ccc(O)cc2)NC(=O)[C@H](NC(=O)c2ncco2)C(C)C)CSSC[C@@H](C(=O)N[C@@H](Cc2cccnc2)C(N)=O)NC(=O)[C@H](Cc2cccc(C(N)=O)c2)NC(=O)[C@@H]2C=CCN2C(=O)CNC(=O)[C@H](C(C)C)NC(=O)[C@H](CC(=O)O)NC1=O` [Compound 67, Oxazole-2-carbonyl-D-Val-Tyr-c(Cys-Orn(iPr)-Asp-Val-Gly-Dhp-Phe(3-Cbm)-Cys)-3Pal-NH2] (Oxazole2carbonyl-[dV]YC[Orn(iPr)]DVG[ΔPro][Phe(3-CONH2)]C[3Pal]-NH2; disulfide 3-10) are 99%, 103 nM, 1094, 101% and 0.09 nM.
`CC(C)NCCC[C@@H]1NC(=O)[C@@H](NC(=O)[C@H](Cc2ccc(O)cc2)NC(=O)[C@H](NC(=O)c2ccc(F)cn2)C(C)C)CSSC[C@@H](C(=O)N[C@@H](Cc2cccnc2)C(N)=O)NC(=O)[C@H](Cc2cccc(C(N)=O)c2)NC(=O)[C@@H]2C=CCN2C(=O)CNC(=O)[C@H](C(C)C)NC(=O)[C@H](CC(=O)O)NC1=O` [Compound 68, Picolinoyl(5-F)-D-Val-Tyr-c(Cys-Orn(iPr)-Asp-Val-Gly-Dhp-Phe(3-Cbm)-Cys)-3Pal-NH2] ({Picolinoyl(5-F)}-[dV]YC[Orn(iPr)]DVG[ΔPro][Phe(3-CONH2)]C[3Pal]-NH2; disulfide 3-10): in test [1], the Emax was 100%, the IC50 was 18 nM and the “selectivity ratio CGRP/AM2” value was 300. In addition, in test [2], the Emax is 101% and the IC50 was 0.06 nM.
Take `CC(C)NCCC[C@@H]1NC(=O)[C@@H](NC(=O)[C@H](Cc2ccc(O)cc2)NC(=O)[C@H](NC(=O)c2ccccn2)C(C)C)CSSC[C@@H](C(=O)N[C@@H](Cc2cccnc2)C(N)=O)NC(=O)[C@H](Cc2ccc(CO)cc2)NC(=O)[C@@H]2C=CCN2C(=O)CNC(=O)[C@H](C(C)C)NC(=O)[C@H](CC(=O)O)NC1=O` [Compound 69, Picolinoyl-D-Val-Tyr-c(Cys-Orn(iPr)-Asp-Val-Gly-Dhp-Phe(4-CH2OH)-Cys)-3Pal-NH2] (Picolinoyl-[dV]YC[Orn(iPr)]DVG[ΔPro][X5]C[3Pal]-NH2; disulfide 3-10): in test [1], the Emax was 100%, the IC50 was 64 nM and the “selectivity ratio CGRP/AM2” value is recorded as 497. Moreover, in test [2], the Emax was 100% and the IC50 is 0.13 nM.
Consider `CC(C)NCCC[C@@H]1NC(=O)[C@@H](NC(=O)[C@H](Cc2ccc(O)cc2)NC(=O)[C@H](NC(=O)c2ncco2)C(C)C)CSSC[C@@H](C(=O)N[C@@H](Cc2cccnc2)C(N)=O)NC(=O)[C@H](Cc2ccc(CO)cc2)NC(=O)[C@@H]2C=CCN2C(=O)CNC(=O)[C@H](C(C)C)NC(=O)[C@H](CC(=O)O)NC1=O` [Compound 70, Oxazole-2-carbonyl-D-Val-Tyr-c(Cys-Orn(iPr)-Asp-Val-Gly-Dhp-Phe(4-CH2OH)-Cys)-3Pal-NH2] (Oxazole2carbonyl-[dV]YC[Orn(iPr)]DVG[ΔPro][X5]C[3Pal]-NH2; disulfide 3-10), for which, in test [1], the Emax is 100%, the IC50 was 107 nM and the “selectivity ratio CGRP/AM2” value is on record as 727. Also, in test [2], the Emax is 100% and the IC50 was 0.15 nM.

The term IC50 denotes the concentration needed to halve the response being measured.

The values above are taken from patent US9969775B2, “CGRP antagonist peptides” (Ferring B.V., priority 2015, dated 2018).
